Measured values reported in PubChem BioAssay AID284 (DTP/NCI, 2004).
Values joined by “and” are separate entries in the source; they are usually repeats but may differ in a detail not shown here. Identical values can stand only once. Toxic doses and inconclusive results are not listed. The calls were made as follows: active = survival T/C of 150% or more; inactive = T/C below 125% in these data.

System: BDF1 mice, L1210/MTX-resistant leukemia ip, survival T/C
Test: NCI In Vivo Anticancer Drug Screen. Data for tumor model L1210 Leukemia resistant to Methotrexate; NSC 740 (intraperitoneal) in B6D2F1 (BDF1) mice
Conditions: endpoint: mean survival time, higher = longer survival
Method: The antitumor activity of compounds was measured in mice bearing transplantable tumors. Survival or tumor size were measured and the results are expressed as the measurement made in the treated group (T) divided by the measurement made in the vehicle treated control group (C). The tumor model used in this assay is L1210 Leukemia resistant to Methotrexate; NSC 740 (intraperitoneal) in B6D2F1 (BDF1) mice

[1] = dose: 7.5 mg/kg/injection, schedule: Q01DX Z (ip), vehicle: carboxymethylcellulose (CMC)
[2] = dose: 10.0 mg/kg/injection, schedule: Q01DX010 (ip), vehicle: saline
[3] = dose: 20.0 mg/kg/injection, schedule: Q01DX010 (ip), vehicle: saline
[4] = dose: 40.0 mg/kg/injection, schedule: Q01DX010 (ip), vehicle: saline
[5] = dose: 3.75 mg/kg/injection, schedule: Q01DX Z (ip), vehicle: carboxymethylcellulose (CMC)
[6] = dose: 15.0 mg/kg/injection, schedule: Q01DX Z (ip), vehicle: carboxymethylcellulose (CMC)
[7] = dose: 30.0 mg/kg/injection, schedule: Q01DX Z (ip), vehicle: carboxymethylcellulose (CMC)
[8] = dose: 12.5 mg/kg/injection, schedule: Q01DX010 (ip), vehicle: saline
[9] = dose: 12.5 mg/kg/injection, schedule: Q01DX Z (ip), vehicle: carboxymethylcellulose (CMC)
[10] = dose: 25.0 mg/kg/injection, schedule: Q01DX010 (ip), vehicle: saline
[11] = dose: 50.0 mg/kg/injection, schedule: Q01DX010 (ip), vehicle: saline
[12] = dose: 2.5 mg/kg/injection, schedule: Q01DX Z (ip), vehicle: saline
[13] = dose: 5.0 mg/kg/injection, schedule: Q01DX Z (ip), vehicle: saline
[14] = dose: 5.0 mg/kg/injection, schedule: Q01DX010 (ip), vehicle: saline

Measured: T/C

NC(Cc1ccc(N(CCCl)CCCl)cc1)C(=O)O (configuration not stated)
active: dose: 2.0 mg/kg/injection, schedule: Q01DX010 (ip), vehicle: other 156 % of control
inactive: dose: 0.5 mg/kg/injection, schedule: Q01DX Z (ip), vehicle: carboxymethylcellulose (CMC) 112 % of control | dose: 1.0 mg/kg/injection, schedule: Q01DX Z (ip), vehicle: carboxymethylcellulose (CMC) 123 % of control | dose: 2.0 mg/kg/injection, schedule: Q01DX Z (ip), vehicle: carboxymethylcellulose (CMC) 102 % of control | dose: 4.0 mg/kg/injection, schedule: Q01DX010 (ip), vehicle: other 98 % of control | dose: 4.0 mg/kg/injection, schedule: Q01DX Z (ip), vehicle: carboxymethylcellulose (CMC) 90 % of control | dose: 5.0 mg/kg/injection, schedule: Q01DX Z (ip), vehicle: carboxymethylcellulose (CMC) 107 % of control | [1] 86 % of control | dose: 8.0 mg/kg/injection, schedule: Q01DX010 (ip), vehicle: other 91 % of control | dose: 10.0 mg/kg/injection, schedule: Q01DX Z (ip), vehicle: carboxymethylcellulose (CMC) 93 % of control

O=C(Nc1ccc(C2=NCCN2)cc1)c1ccc(C(=O)Nc2ccc(C3=NCCN3)cc2)c([N+](=O)[O-])c1
active: dose: 6.0 mg/kg/injection, schedule: Q01DX010 (ip), vehicle: saline 259 % of control | dose: 8.0 mg/kg/injection, schedule: Q01DX010 (ip), vehicle: saline 284 % of control | dose: 12.0 mg/kg/injection, schedule: Q01DX010 (ip), vehicle: saline 201 % of control
inactive: dose: 6.3 mg/kg/injection, schedule: Q01DX Z (ip), vehicle: saline 122 % of control | dose: 12.5 mg/kg/injection, schedule: Q01DX Z (ip), vehicle: saline 97 % of control | dose: 18.0 mg/kg/injection, schedule: Q01DX010 (ip), vehicle: saline 107 % of control | dose: 25.0 mg/kg/injection, schedule: Q01DX Z (ip), vehicle: saline 116 % of control and 96 % of control

CC1CCOS(=O)O1 (configuration not stated)
inactive: [2] 100 % of control | [3] 100 % of control | [4] 90 % of control

CC(=O)O[C@]1(C(C)=O)CC[C@H]2[C@@H]3C[C@H](C)C4=CC(=O)C=C[C@]4(C)[C@@]3(F)[C@@H](O)C[C@@]21C
inactive: dose: 0.62 mg/kg/injection, schedule: Q01DX Z (sc), vehicle: steriod suspending solution 96 % of control | dose: 1.25 mg/kg/injection, schedule: Q01DX Z (sc), vehicle: steriod suspending solution 97 % of control | dose: 2.5 mg/kg/injection, schedule: Q01DX Z (sc), vehicle: steriod suspending solution 100 % of control | dose: 5.0 mg/kg/injection, schedule: Q01DX Z (sc), vehicle: steriod suspending solution 101 % of control | dose: 12.5 mg/kg/injection, schedule: Q01DX010 (sc), vehicle: steriod suspending solution 101 % of control | dose: 25.0 mg/kg/injection, schedule: Q01DX010 (sc), vehicle: steriod suspending solution 100 % of control | dose: 50.0 mg/kg/injection, schedule: Q01DX010 (sc), vehicle: steriod suspending solution 88 % of control | dose: 100.0 mg/kg/injection, schedule: Q01DX010 (sc), vehicle: steriod suspending solution 88 % of control
active: dose: 37.5 mg/kg/injection, schedule: Q01DX Z (sc), vehicle: steriod suspending solution 150 % of control

O=c1[nH]c(=O)n(C2CC(O)C(CO)O2)cc1Br (configuration not stated)
inactive: [5] 93 % of control | [1] 120 % of control | [6] 113 % of control | [7] 104 % of control

C[C@]12CC[C@H](OC3OC(CO)C(O)C(O)C3O)C[C@H]1CC[C@@H]1[C@@H]2CC[C@]2(C)[C@@H](C3=CCOC3=O)CC[C@]12O (some centres not stated)
inactive: dose: 1.0 mg/kg/injection, schedule: Q01DX Z (ip), vehicle: saline 86 % of control

CS(=O)(=O)OCCCCOS(C)(=O)=O
inactive: dose: 0.38 mg/kg/injection, schedule: Q01DX Z (ip), vehicle: methylcellulose (MC) 88 % of control and 105 % of control | dose: 0.75 mg/kg/injection, schedule: Q01DX Z (ip), vehicle: methylcellulose (MC) 93 % of control and 97 % of control | dose: 6.25 mg/kg/injection, schedule: Q01DX010 (ip), vehicle: saline 97 % of control | [8] 92 % of control and 93 % of control | [9] 106 % of control | [10] 91 % of control | [11] 102 % of control

NC(=O)N(CCCl)N=O
inactive: dose: 4.0 mg/kg/injection, schedule: Q01DX010 (ip), vehicle: saline 104 % of control
active: dose: 0.5 mg/kg/injection, schedule: Q01DX010 (ip), vehicle: saline 158 % of control

C=CC(CN1CC1)OC(C)=O (configuration not stated)
inactive: dose: 1.25 mg/kg/injection, schedule: Q01DX Z (ip), vehicle: saline 119 % of control | dose: 2.0 mg/kg/injection, schedule: Q01DX010 (ip), vehicle: saline 123 % of control | [12] 107 % of control | [13] 102 % of control

O=NN(CCCl)C(=O)NCCCl
inactive: [8] 113 % of control | [10] 87 % of control and 91 % of control

Cn1c(N)nc2nc[nH]c2c1=S
inactive: dose: 6.25 mg/kg/injection, schedule: Q01DX Z (ip), vehicle: carboxymethylcellulose (CMC) 108 % of control | [2] 98 % of control | [9] 90 % of control | [3] 95 % of control | dose: 25.0 mg/kg/injection, schedule: Q01DX Z (ip), vehicle: carboxymethylcellulose (CMC) 104 % of control | [4] 97 % of control | dose: 50.0 mg/kg/injection, schedule: Q01DX Z (ip), vehicle: carboxymethylcellulose (CMC) 119 % of control | dose: 80.0 mg/kg/injection, schedule: Q01DX010 (ip), vehicle: saline 115 % of control

CN(C)/N=N/c1nc[nH]c1C(N)=O
inactive: [8] 108 % of control | [10] 118 % of control | [11] 119 % of control | dose: 100.0 mg/kg/injection, schedule: Q01DX010 (ip), vehicle: saline 118 % of control

C[C@@H]1C[C@@H]([C@H](O)CC2CC(=O)NC(=O)C2)C(=O)[C@@H](C)C1
inactive: [14] 90 % of control and 105 % of control | [1] 112 % of control and 96 % of control | [2] 103 % of control | [6] 92 % of control and 108 % of control | [3] 97 % of control | [7] 114 % of control | [4] 95 % of control and 97 % of control

N#[N+]c1cnc([O-])[nH]c1=O
inactive: dose: 0.16 mg/kg/injection, schedule: Q01DX Z (ip), vehicle: methylcellulose (MC) 106 % of control | dose: 0.32 mg/kg/injection, schedule: Q01DX Z (ip), vehicle: methylcellulose (MC) 103 % of control | dose: 0.63 mg/kg/injection, schedule: Q01DX Z (ip), vehicle: methylcellulose (MC) 100 % of control

CS(=O)(=O)OCCCl
inactive: dose: 7.5 mg/kg/injection, schedule: Q01DX Z (ip), vehicle: saline 107 % of control | dose: 10.0 mg/kg/injection, schedule: Q01DX Z (ip), vehicle: saline 111 % of control | dose: 15.0 mg/kg/injection, schedule: Q01DX Z (ip), vehicle: saline 109 % of control | dose: 20.0 mg/kg/injection, schedule: Q01DX Z (ip), vehicle: saline 111 % of control | dose: 50.0 mg/kg/injection, schedule: Q01DX Z (ip), vehicle: saline 86 % of control

CN(C)c1ccc(/C=C/c2ccnc3ccccc23)cc1
inactive: [12] 121 % of control | [14] 104 % of control | [13] 101 % of control | [2] 95 % of control

CCOC(N)=O
inactive: dose: 62.5 mg/kg/injection, schedule: Q01DX010 (ip), vehicle: saline 87 % of control | dose: 125.0 mg/kg/injection, schedule: Q01DX010 (ip), vehicle: saline 98 % of control | dose: 188.0 mg/kg/injection, schedule: Q01DX Z (ip), vehicle: saline 102 % of control | dose: 250.0 mg/kg/injection, schedule: Q01DX Z (ip), vehicle: saline 91 % of control | dose: 375.0 mg/kg/injection, schedule: Q01DX Z (ip), vehicle: saline 87 % of control and 99 % of control | dose: 500.0 mg/kg/injection, schedule: Q01DX010 (ip), vehicle: saline 88 % of control | dose: 750.0 mg/kg/injection, schedule: Q01DX Z (ip), vehicle: saline 93 % of control | dose: 1500.0 mg/kg/injection, schedule: Q01DX Z (ip), vehicle: saline 100 % of control

O=c1[nH]c(=O)n(C2CC(O)C(CO)O2)cc1I (configuration not stated)
inactive: [5] 102 % of control | [1] 108 % of control | [6] 108 % of control | [7] 106 % of control
